Paper PMC7894038 (Antiviral research, 2020)
pKd: −log10 of the molar value. Where two headings read alike, the source gives them in different places.

Biological target: eNP-CTD (Ebola virus nucleoprotein C-terminal domain, residues 641-739) (Zaire ebolavirus, UniProt P18272)
Test: biochemical
Assay type: binding

Sequence of eNP-CTD (Ebola virus nucleoprotein C-terminal domain, residues 641-739) (P18272 641-739 limits assumed): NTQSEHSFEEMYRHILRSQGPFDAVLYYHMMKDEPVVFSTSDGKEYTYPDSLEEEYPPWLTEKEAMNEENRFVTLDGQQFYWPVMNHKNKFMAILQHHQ

With `CNCC1CCN(Cc2cccnc2)CC1` [CC69846, N-methyl-[1-(pyrid-3-ylmethyl)piperid-4-yl]methylamine] the “Site 1 ligand efficiency” value was 1.6 ± 0.2 (0.24), the “Site 3 ligand efficiency” value was 1.9 ± 0.3 (0.24) and the “Site 4 ligand efficiency” value was 4.9 ± 1.8 (0.20). For the same compound, the pKd (Site 1 Kd ± Std. Error) was 2.80, the pKd (Site 3 Kd ± Std. Error) was < 2.79 and the pKd (Site 4 Kd ± Std. Error) was < 2.79. The “Site 2 Kd ± Std. Error” value (pH 7) was “did not bind”, the “Site 4 Kd ± Std. Error” value (pH 7) was “lower affinity” and the pKd (read-out: Site 2 Kd ± Std. Error, pH 7) was < 2.15.
